Patent publication US12059422B2 (MEI Pharma, Inc., priority 2011, dated 2024)

Columns and labels:
PI3K beta = target: T1, PI3K beta (Homo sapiens, UniProt P42338); test: Luciferase-based luminescence assay (ADP Glo), PI3K beta enzymatic activity; type: biochemical; details: for IC50: inhibition of enzymatic activity, ADP Glo, 25 μM ATP, read-out: IC50 p110β; for α/β ratio: ratio of enzymatic IC50 values, Table 1
T1 construct: purchased Millipore, Billerica, MA, USA
Protocol: PI3K catalyzes the conversion of phosphatidylinositol-4,5-bisphosphate (PIP2) and ATP to phosphatidylinositol-3,4,5-trisphosphate (PIP3) and ADP. For all assays, the reaction buffer comprised 50 mM HEPES, pH 7.5, 3 mM MgCl2, 1 mM EGTA, 100 mM NaCl, 0.03% CHAPS and 2 mM DTT. Compounds for testing were dissolved and serially diluted in 100% DMSO (total of 10 concentrations), then diluted 1:25 in reaction buffer.
PI3K beta and gamma enzymatic activity was determined by measuring the amount of ADP produced following the kinase reaction using a luciferase-based luminescence assay (ADP Glo®, Promega Corp., Madison, WI, USA). PI3K enzyme solutions were prepared by diluting PI3K beta (Millipore, Billerica, MA, USA) or PI3K gamma (Invitrogen Corp., Carlsbad, CA, USA) in reaction buffer, to 4× the final assay concentration (final concentrations of enzymes were 4.8 nM and 7.6 nM for PI3K beta and PI3K gamma respectively). A substrate solution was prepared by mixing PIP2 and ATP in reaction buffer at 2× the final assay concentration (final concentrations were 50 μM and 25 μM for PIP2 and ATP respectively). 2.5 μL each of the compound and kinase mixtures were added to individual wells of white low volume 384-well assay plates and mixed by shaking. The reactions were started by adding 5 μL of substrate mixture per well and shaking. The assay plates were covered and reactions were allowed to proceed for 1 hour. Then, 5 μL of reaction mix was transferred to another white low volume 384-well plate, and 5 μL of ADP-Glo™ reagent was added. The plates were briefly centrifuged and incubated for 40 minutes, after which 10 μL of kinase detection buffer was added. The plates then were centrifuged briefly, shaken slowly and equilibrated at room temperature for 30 minutes, after which luminescence was measured using a FlexStation plate reader (Molecular Devices, Sunnyvale, CA, USA). IC50 values were determined by curve fitting using Graphpad Prism software (Graphpad Software, La Jolla, CA, USA).

PI3Kγ = target: T2, PI3Kγ (Mus musculus, UniProt Q9JHG7); test: ELISA assay for PI3Kγ: in-cell ELISA, phosphorylation of AKT (Ser473) in RAW 264.7 cells; type: cell-based; details: cellular, pAKT (Ser473), C5a stimulation, read-out: IC50 p110γ
T2 construct: endogenous in cells; host or cells: RAW 264.7 (ATCC #TIB-71)
Protocol: PI3K gamma (PI3Kγ) activity was determined by measuring the phosphorylation of AKT (Ser473) using an in-cell ELISA assay. RAW 264.7 (mouse macrophage) cells were obtained from ATCC (ATCC #TIB-71). Growth medium was DMEM (CellGro #CV-10-013-CV) supplemented with 10% fetal bovine serum, 100 IU/mL penicillin, 100 μg/mL streptomycin, and 1×MEM non-essential amino acids. Phosphate buffered saline (PBS) contained 2.7 M NaCl, 54 mM KCl, 86 mM […] (dibasic, anhydrous), and 28 mM […] (monobasic, anhydrous) at pH 7.2. Stimulation mixture (10×) was 500 ng/mL recombinant human complement component C5a (R&D systems #2037-C5-025) diluted in serum-free DMEM medium (CellGro #CV-10-013-CV). Compounds for testing were dissolved and serially diluted in 100% DMSO (total of 10 concentrations), then diluted in serum-free DMEM to 2× final assay concentration. Fixative solution (2×) was 8% formaldehyde (Amresco #M134) diluted in PBS. Permeabilization solution was PBS supplemented with 0.10% Triton X-100. Blocking buffer was obtained from LiCor (LiCor #927-40000). Wash buffer was PBS supplemented with 0.1% Tween-20. Primary antibody solution was rabbit anti-pAKT^S473 monoclonal antibody (Cell Signaling #4060) and mouse anti-total S6 (Santa Cruz #74459) diluted 1:500 and 1:2000, respectively, in the blocking buffer. Secondary antibody solution was IRDye 800CW-conjugated goat anti-rabbit IgG (LiCor #926-32211) and IRDye 680LT-conjugated goat anti-mouse IgG (LiCor #926-68020) diluted 1:1000 and 1:2000, respectively, in the blocking buffer.
RAW 264.7 cells were subcultured in growth medium and seeded into flat, clear bottom, 96-well plates (Corning #3904) at 70000 cells/well, then incubated overnight in a 37° C., 5% CO2 incubator. Growth medium in plates was replaced with 100 μL/well serum-free DMEM and incubated overnight in a 37° C., 5% CO2 incubator. Fresh serum-free DMEM (50 μL/well) was added to plates. Compound treatment was performed by adding 50 μL/well of 2× compound mixture to plates and incubating for 2 hrs at 37° C., 5% CO2, after which 11 μL/well of 10× stimulation mixture was added and plates were incubated for 3 min at 37° C., 5% CO2. Fixation was performed by adding 110 μL/well of 2× fixative solution to plates and incubating for 20 min at room temperature. Permeabilization was performed by replacing fixation solution with 150 μL/well permeabilization solution and incubating for 10 min at room temperature. Permeabilization was repeated (for a total of 2 times). Permeabilization solution was replaced with 100 μL/well blocking buffer and plates were incubated for 1 hr at room temperature, after which 100 μL/well of primary antibody solution was added and plates were incubated overnight at 4° C. Plates were washed with wash buffer, after which 100 μL/well of secondary antibody solution was added to the plates and incubated in the dark for 1 hr at room temperature. Plates were washed with wash buffer, followed by awash with PBS. After completely removing PBS, plates were scanned on the Licor Odyssey Imager. Images were quantified using Licor Odyssey application software. IC50 values were determined by curve fitting using a Collaborative Drug Discovery database (www.collaborativedrug.com).

T1 sequence (P42338 whole entry, species assumed): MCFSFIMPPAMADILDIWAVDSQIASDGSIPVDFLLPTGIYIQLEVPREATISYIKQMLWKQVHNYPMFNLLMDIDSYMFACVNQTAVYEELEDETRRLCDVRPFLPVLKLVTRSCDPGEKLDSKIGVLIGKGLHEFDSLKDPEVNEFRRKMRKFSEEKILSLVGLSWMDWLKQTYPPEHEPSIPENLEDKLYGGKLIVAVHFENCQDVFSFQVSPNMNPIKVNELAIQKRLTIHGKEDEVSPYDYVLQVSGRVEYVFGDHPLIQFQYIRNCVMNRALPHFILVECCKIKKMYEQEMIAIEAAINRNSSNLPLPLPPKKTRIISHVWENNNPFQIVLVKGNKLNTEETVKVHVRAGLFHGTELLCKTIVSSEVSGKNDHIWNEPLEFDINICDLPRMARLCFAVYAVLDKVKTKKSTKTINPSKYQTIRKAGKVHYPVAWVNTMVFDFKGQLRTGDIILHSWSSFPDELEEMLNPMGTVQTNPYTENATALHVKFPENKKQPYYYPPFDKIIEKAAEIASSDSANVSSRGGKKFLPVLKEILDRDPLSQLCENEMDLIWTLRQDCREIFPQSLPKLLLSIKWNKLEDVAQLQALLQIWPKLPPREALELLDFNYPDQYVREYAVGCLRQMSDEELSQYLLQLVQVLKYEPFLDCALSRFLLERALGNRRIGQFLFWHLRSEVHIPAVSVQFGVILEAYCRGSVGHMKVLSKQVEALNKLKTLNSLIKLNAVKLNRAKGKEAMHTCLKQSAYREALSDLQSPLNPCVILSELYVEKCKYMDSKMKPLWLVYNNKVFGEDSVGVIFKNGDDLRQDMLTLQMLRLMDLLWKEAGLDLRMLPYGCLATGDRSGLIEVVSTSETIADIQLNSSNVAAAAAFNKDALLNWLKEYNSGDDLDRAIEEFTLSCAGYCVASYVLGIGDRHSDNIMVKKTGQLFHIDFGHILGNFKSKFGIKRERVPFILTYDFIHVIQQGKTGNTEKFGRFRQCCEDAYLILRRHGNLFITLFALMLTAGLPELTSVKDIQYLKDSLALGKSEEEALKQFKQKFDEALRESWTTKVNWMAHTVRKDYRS
T1 sequence (P27986 whole entry partner, species assumed): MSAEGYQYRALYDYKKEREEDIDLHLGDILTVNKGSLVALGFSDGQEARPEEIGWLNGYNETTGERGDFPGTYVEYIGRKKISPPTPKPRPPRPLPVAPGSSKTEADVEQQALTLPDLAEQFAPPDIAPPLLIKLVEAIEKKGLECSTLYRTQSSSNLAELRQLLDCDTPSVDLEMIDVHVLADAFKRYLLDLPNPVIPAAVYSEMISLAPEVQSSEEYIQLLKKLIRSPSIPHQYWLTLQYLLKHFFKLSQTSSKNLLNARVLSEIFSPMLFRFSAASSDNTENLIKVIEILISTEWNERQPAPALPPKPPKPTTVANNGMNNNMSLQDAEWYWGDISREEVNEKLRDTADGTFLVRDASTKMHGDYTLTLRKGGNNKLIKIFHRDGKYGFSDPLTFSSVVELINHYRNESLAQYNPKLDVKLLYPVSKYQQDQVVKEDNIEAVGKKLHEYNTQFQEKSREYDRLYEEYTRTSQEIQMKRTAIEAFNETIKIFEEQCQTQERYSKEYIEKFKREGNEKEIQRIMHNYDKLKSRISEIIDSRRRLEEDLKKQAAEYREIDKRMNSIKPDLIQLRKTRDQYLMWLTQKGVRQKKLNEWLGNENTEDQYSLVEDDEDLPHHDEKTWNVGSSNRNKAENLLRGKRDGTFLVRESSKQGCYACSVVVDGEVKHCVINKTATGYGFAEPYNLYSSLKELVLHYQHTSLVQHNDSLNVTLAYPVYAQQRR
T2 sequence (Q9JHG7 whole entry): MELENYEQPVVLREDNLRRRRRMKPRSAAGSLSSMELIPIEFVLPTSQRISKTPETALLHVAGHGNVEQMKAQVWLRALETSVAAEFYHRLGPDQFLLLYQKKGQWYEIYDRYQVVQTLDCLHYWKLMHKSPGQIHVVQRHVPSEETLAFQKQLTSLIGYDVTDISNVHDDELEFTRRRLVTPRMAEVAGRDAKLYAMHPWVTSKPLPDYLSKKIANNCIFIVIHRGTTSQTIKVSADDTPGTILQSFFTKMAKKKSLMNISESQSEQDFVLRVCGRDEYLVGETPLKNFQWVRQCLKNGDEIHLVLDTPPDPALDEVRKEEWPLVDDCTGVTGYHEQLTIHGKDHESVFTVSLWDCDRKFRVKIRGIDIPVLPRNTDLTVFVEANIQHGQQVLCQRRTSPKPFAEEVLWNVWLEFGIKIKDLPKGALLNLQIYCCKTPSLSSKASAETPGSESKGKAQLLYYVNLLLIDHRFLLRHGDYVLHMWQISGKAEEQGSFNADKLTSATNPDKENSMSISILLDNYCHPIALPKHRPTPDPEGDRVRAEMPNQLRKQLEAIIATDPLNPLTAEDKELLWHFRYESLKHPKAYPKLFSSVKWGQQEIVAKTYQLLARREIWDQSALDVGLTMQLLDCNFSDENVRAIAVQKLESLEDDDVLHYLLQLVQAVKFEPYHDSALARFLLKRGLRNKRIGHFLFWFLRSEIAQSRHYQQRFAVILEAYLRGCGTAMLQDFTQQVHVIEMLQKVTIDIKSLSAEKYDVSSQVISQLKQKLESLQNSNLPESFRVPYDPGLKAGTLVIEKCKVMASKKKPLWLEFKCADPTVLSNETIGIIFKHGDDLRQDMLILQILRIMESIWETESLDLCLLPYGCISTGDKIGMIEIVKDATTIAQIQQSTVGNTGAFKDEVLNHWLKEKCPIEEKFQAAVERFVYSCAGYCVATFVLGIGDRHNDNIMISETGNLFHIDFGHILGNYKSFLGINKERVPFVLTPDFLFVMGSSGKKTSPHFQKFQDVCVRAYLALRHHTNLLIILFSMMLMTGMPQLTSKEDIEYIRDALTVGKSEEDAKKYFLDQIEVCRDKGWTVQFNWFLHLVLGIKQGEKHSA

Row | SMILES | IC50 (PI3K beta) [µM] | α/β ratio (PI3K beta) | IC50 (PI3Kγ) [µM]
1 | COc1cccc(CC(C)(C)Nc2nc(N3CCOCC3)nc(-n3c(C(F)F)nc4ccccc43)n2)c1 [Compound A21, 4-(2-(difluoromethyl)-1H-benzo[d]imidazol-1-yl)-N-(1-(3-methoxyphenyl)-2-methylpropan-2-yl)-6-morpholino-1,3,5-triazin-2-amine] | 0.1 to 0.2 | C’ | 0.2 to 0.5
2 | CN(C)CCCc1ccccc1CC(C)(C)Nc1nc(N2CCOCC2)nc(-n2c(C(F)F)nc3ccccc32)n1 [Compound A76, 4-(2-(difluoromethyl)-1H-benzo[d]imidazol-1-yl)-N-(1-(2-(3-(dimethylamino)propyl)phenyl)-2-methylpropan-2-yl)-6-morpholino-1,3,5-triazin-2-amine] | 0.2 to 0.5 | C’ | > 0.5
3 | CC(C)(Cc1ccc(F)cc1)Nc1nc(N2CCOCC2)nc(-n2c(C(F)F)nc3ccccc32)n1 [Compound A22, 4-(2-(difluoromethyl)-1H-benzo[d]imidazol-1-yl)-N-(1-(4-fluorophenyl)-2-methylpropan-2-yl)-6-morpholino-1,3,5-triazin-2-amine] | 0.1 to 0.2 | C’ | 0.2 to 0.5
4 | CC(C)(Cc1ccc(F)cc1F)Nc1nc(N2CCOCC2)nc(-n2c(C(F)F)nc3ccccc32)n1 [Compound A51, 4-(2-(difluoromethyl)-1H-benzo[d]imidazol-1-yl)-N-(1-(2,4-difluorophenyl)-2-methylpropan-2-yl)-6-morpholino-1,3,5-triazin-2-amine] | > 0.5 | D’ | 0.1 to 0.2
5 | Cc1cccc(CC(C)(C)Nc2nc(N3CCOCC3)nc(-n3c(C(F)F)nc4ccccc43)n2)c1 [Compound A49, 4-(2-(difluoromethyl)-1H-benzo[d]imidazol-1-yl)-N-(2-methyl-1-m-tolylpropan-2-yl)-6-morpholino-1,3,5-triazin-2-amine] | ≤ 0.1 | A’ | 0.2 to 0.5
6 | CC(C)(Cc1cccc2ccccc12)Nc1nc(N2CCOCC2)nc(-n2c(C(F)F)nc3ccccc32)n1 [Compound A27, 4-(2-(difluoromethyl)-1H-benzo[d]imidazol-1-yl)-N-(2-methyl-1-(naphthalen-1-yl)propan-2-yl)-6-morpholino-1,3,5-triazin-2-amine] | ≤ 0.1 | B’ | 
7 | CC(C)(Cc1ccccc1-c1ccncc1)Nc1nc(N2CCOCC2)nc(-n2c(C(F)F)nc3ccccc32)n1 [Compound A33, 4-(2-(difluoromethyl)-1H-benzo[d]imidazol-1-yl)-N-(2-methyl-1-(2-(pyridin-4-yl)phenyl)propan-2-yl)-6-morpholino-1,3,5-triazin-2-amine] | ≤ 0.1 | B’ | 
8 | COc1ccccc1CC(C)(C)Nc1nc(N2CCOCC2)nc(-n2c(C(F)F)nc3ccccc32)n1 [Compound A19, 4-(2-(difluoromethyl)-1H-benzo[d]imidazol-1-yl)-N-(1-(2-methoxyphenyl)-2-methylpropan-2-yl)-6-morpholino-1,3,5-triazin-2-amine] | 0.2 to 0.5 | D’ | 

Next, values leading:

Row | IC50 (PI3K beta) [µM] | α/β ratio (PI3K beta) | IC50 (PI3Kγ) [µM] | SMILES
9 | 0.2 to 0.5 | C’ | > 0.5 | CC(C)(Cc1ccccc1-c1ccccc1F)Nc1nc(N2CCOCC2)nc(-n2c(C(F)F)nc3ccccc32)n1 [Compound A59, 4-(2-(difluoromethyl)-1H-benzo[d]imidazol-1-yl)-N-(1-(2′-fluorobiphenyl-2-yl)-2-methylpropan-2-yl)-6-morpholino-1,3,5-triazin-2-amine]
10 | > 0.5 | D’ | 0.1 to 0.2 | CC(C)(Cc1c(F)cccc1F)Nc1nc(N2CCOCC2)nc(-n2c(C(F)F)nc3ccccc32)n1 [Compound A52, 4-(2-(difluoromethyl)-1H-benzo[d]imidazol-1-yl)-N-(1-(2,6-difluorophenyl)-2-methylpropan-2-yl)-6-morpholino-1,3,5-triazin-2-amine]
11 | 0.2 to 0.5 | B’ | 0.2 to 0.5 | CN1CCC(c2ccccc2CC(C)(C)Nc2nc(N3CCOCC3)nc(-n3c(C(F)F)nc4ccccc43)n2)CC1 [Compound A35, 4-(2-(difluoromethyl)-1H-benzo[d]imidazol-1-yl)-N-(2-methyl-1-(2-(1-methylpiperidin-4-yl)phenyl)propan-2-yl)-6-morpholino-1,3,5-triazin-2-amine]
12 | ≤ 0.1 | A’ | 0.2 to 0.5 | CC(C)(Cc1ccccc1-c1cccc(CN2CCOCC2)c1)Nc1nc(N2CCOCC2)nc(-n2c(C(F)F)nc3ccccc32)n1 [Compound A65, 4-(2-(difluoromethyl)-1H-benzo[d]imidazol-1-yl)-N-(2-methyl-1-(3′-(morpholinomethyl)biphenyl-2-yl)propan-2-yl)-6-morpholino-1,3,5-triazin-2-amine]
13 | ≤ 0.1 | A’ | 0.2 to 0.5 | Cc1ccccc1CC(C)(C)Nc1nc(N2CCOCC2)nc(-n2c(C(F)F)nc3ccccc32)n1 [Compound A18, 4-(2-(difluoromethyl)-1H-benzo[d]imidazol-1-yl)-N-(2-methyl-1-(o-tolyl)propan-2-yl)-6-morpholino-1,3,5-triazin-2-amine]
14 | ≤ 0.1 | A’ | > 0.5 | Cc1ccccc1-c1ccccc1CC(C)(C)Nc1nc(N2CCOCC2)nc(-n2c(C(F)F)nc3ccccc32)n1 [Compound A60, 4-(2-(difluoromethyl)-1H-benzo[d]imidazol-1-yl)-N-(2-methyl-1-(2′-methylbiphenyl-2-yl)propan-2-yl)-6-morpholino-1,3,5-triazin-2-amine]
15 | > 0.5 | D’ | 0.2 to 0.5 | CC(C)(Cc1ccccc1C1CCNCC1)Nc1nc(N2CCOCC2)nc(-n2c(C(F)F)nc3ccccc32)n1 [Compound A68, 4-(2-(difluoromethyl)-1H-benzo[d]imidazol-1-yl)-N-(2-methyl-1-(2-(piperidin-4-yl)phenyl)propan-2-yl)-6-morpholino-1,3,5-triazin-2-amine]
16 |  |  | 0.1 to 0.2 | CN1CCC(c2ccccc2CC(C)(C)Nc2nc(N3CCOCC3)nc(-n3c(C(F)F)nc4ccccc43)n2)C1 (stereo not shown) [Compound A75, 4-(2-(difluoromethyl)-1H-benzo[d]imidazol-1-yl)-N-(2-methyl-1-(2-(1-methylpyrrolidin-3-yl)phenyl)propan-2-yl)-6-morpholino-1,3,5-triazin-2-amine]
